pKi: −log10 of the molar value. Where two headings read alike, the source gives them in different places.
Assays:
CTX-M-14 KP1005 [1] = type: cell-based
CMY-6 EC1010 [2] = assay: Aztreonam potentiation (MPC@4); type: cell-based; conditions: minimum BLI concentration inhibiting growth with 4 μg/mL aztreonam
CTX-M-15 KP1009 [3] = type: cell-based
CTX-M-15 KP1009 [4] = assay: Aztreonam potentiation (MPC@4); type: cell-based; conditions: minimum BLI concentration inhibiting growth with 4 μg/mL aztreonam
KPC-2 KP1004 = assay: Aztreonam potentiation (MPC@4); type: cell-based; conditions: minimum BLI concentration inhibiting growth with 4 μg/mL aztreonam
OXA-48 KP1086 = assay: Biapenem potentiation (MPC@1); type: cell-based; conditions: minimum BLI concentration inhibiting growth with 1 μg/mL biapenem
Experimental: (§1) Biapenem was present in the test medium at 1 μg/mL. […] Table 3 summarizes the BLI potency of biapenem potentiation (MPC@1) for two strains overexpressing class A (KPC) and class D (OXA-48) carbapenemases. Biapenem MIC for each strain is also shown.

KP1004 KPC-2 = assay: Biapenem potentiation (MPC@1); type: cell-based; conditions: minimum BLI concentration inhibiting growth with 1 μg/mL biapenem
Experimental: as §1

ECL1002 [5] = type: cell-based; conditions: minimum BLI concentration inhibiting growth with tigemonam at 4 μg/mL
SHV-5 ec308 [6] = type: cell-based; conditions: minimum BLI concentration inhibiting growth with tigemonam at 4 μg/mL
OXA-48 = OXA-48 (Klebsiella pneumoniae, UniProt Q6XEC0); assay: Inhibition of nitrocefin cleavage by purified enzyme (Ki); type: biochemical; conditions: nitrocefin reporter substrate, 10 min preincubation; read-out: Ki (OXA-48, NCF)
Summary of the method: (§2)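 Purified enzyme was preincubated with a range of inhibitor concentrations in reaction buffer for 10 min at room temperature. Nitrocefin was then added and its cleavage followed at 490 nm every 10 sec for 10 min.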

SHV-12 = SHV-12 (Klebsiella pneumoniae, UniProt P0AD64, E235K/G234S/L31Q); assay: as above; type: biochemical
Summary of the method: as §2

SHV-5 ec308 [7] = assay: Aztreonam potentiation (MPC@4); type: cell-based; conditions: minimum BLI concentration inhibiting growth with 4 μg/mL aztreonam
ECL1002 [8] = assay: Aztreonam potentiation (MPC@4); type: cell-based; conditions: minimum BLI concentration inhibiting growth with 4 μg/mL aztreonam
[9] = Intravenous pharmacokinetics; type: in vivo; conditions: rat, plasma, rats, IV infusion over 0.5 hours, read-out: Free Cl (converted)
Experimental: Rats (n=3 per compound) were administered by a single infusion. IV doses were infused over 0.5 hours via an indwelling femoral vein cannula. Plasma (˜0.3 mL) samples were collected from each rat at designated time points up to 24 hours. Blood samples were centrifuged within 5 min of collection at 12000 g for 5 min to obtain plasma. The plasma samples were stored at −80° C. until analyzed. Data were analyzed using WinNonlin.

CTX-M-14 KP1005 [10] = assay: Aztreonam potentiation (MPC@4); type: cell-based; conditions: minimum BLI concentration inhibiting growth with 4 μg/mL aztreonam
TEM-10 ec302 [11] = assay: Aztreonam potentiation (MPC@4); type: cell-based; conditions: minimum BLI concentration inhibiting growth with 4 μg/mL aztreonam
KPC-2 = KPC-2 (Klebsiella pneumoniae, UniProt Q9F663); assay: Inhibition of nitrocefin cleavage by purified enzyme (Ki); type: biochemical; conditions: nitrocefin reporter substrate, 10 min preincubation; read-out: Ki (KPC-2, NCF)
Summary of the method: as §2

P99 = P99 (Enterobacter cloacae, UniProt P05364); assay: as above; type: biochemical; conditions: nitrocefin reporter substrate, 10 min preincubation; read-out: Ki (P99, NCF)
Summary of the method: as §2

CTX-M-14 = CTX-M-14 (Escherichia coli, UniProt Q9L5C7); assay: as above; type: biochemical; conditions: nitrocefin reporter substrate, 10 min preincubation; read-out: Ki (CTX-M-14, NCF)
Summary of the method: as §2

CMY-6 EC1010 [12] = type: cell-based; conditions: minimum BLI concentration inhibiting growth with tigemonam at 4 μg/mL
TEM-10 ec302 [13] = type: cell-based

Sequence of OXA-48 (Q6XEC0 23-265 limits assumed): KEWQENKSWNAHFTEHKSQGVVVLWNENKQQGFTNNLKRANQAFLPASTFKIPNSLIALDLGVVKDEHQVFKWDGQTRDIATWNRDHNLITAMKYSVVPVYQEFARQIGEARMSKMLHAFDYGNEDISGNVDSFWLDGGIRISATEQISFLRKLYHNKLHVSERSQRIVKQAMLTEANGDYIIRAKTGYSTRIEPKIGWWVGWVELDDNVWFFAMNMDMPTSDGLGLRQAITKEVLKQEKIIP
Sequence of KPC-2 (Q9F663 25-293 limits assumed): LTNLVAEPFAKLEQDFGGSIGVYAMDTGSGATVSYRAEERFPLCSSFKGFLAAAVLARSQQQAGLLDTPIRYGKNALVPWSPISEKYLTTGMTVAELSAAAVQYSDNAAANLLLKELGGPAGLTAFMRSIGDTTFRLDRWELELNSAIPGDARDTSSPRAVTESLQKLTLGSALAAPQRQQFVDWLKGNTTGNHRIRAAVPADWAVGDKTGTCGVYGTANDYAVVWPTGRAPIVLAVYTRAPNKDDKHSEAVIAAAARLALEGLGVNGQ
Sequence of SHV-12 (P0AD64 22-286 L31Q/G234S/E235K): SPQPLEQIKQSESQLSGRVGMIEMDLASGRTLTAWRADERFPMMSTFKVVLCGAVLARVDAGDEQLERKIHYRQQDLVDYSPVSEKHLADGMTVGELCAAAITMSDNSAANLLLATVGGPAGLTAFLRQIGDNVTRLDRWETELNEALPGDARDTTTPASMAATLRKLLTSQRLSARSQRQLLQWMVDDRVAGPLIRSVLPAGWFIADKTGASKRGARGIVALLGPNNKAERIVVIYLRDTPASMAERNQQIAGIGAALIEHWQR
Sequence of CTX-M-14 (Q9L5C7 entry or part of it): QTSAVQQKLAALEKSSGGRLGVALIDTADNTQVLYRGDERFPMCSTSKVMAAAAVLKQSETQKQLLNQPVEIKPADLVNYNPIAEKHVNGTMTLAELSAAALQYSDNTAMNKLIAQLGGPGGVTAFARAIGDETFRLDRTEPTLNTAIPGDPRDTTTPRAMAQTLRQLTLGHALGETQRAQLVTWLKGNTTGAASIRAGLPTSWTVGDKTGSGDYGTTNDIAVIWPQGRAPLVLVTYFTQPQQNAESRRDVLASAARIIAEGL
Sequence of P99 (P05364 21-381): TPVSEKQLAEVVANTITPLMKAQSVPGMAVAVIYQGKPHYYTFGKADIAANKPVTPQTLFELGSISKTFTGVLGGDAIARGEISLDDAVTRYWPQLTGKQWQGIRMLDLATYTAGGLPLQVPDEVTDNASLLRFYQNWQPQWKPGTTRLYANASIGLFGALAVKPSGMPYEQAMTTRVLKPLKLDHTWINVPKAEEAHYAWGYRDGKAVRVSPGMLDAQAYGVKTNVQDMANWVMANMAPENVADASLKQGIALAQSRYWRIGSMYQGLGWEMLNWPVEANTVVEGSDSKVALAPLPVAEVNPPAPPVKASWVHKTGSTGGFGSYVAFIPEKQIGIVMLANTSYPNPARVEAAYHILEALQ

NC(=O)CC(=O)N[C@H]1Cc2cccc(C(=O)O)c2OB1O [Compound 16, (R)-3-(3-amino-3-oxopropanamido)-2-hydroxy-3,4-dihydro-2H-benzo[e][1,2]oxaborinine-8-carboxylic acid]
TIG MPC4 CTX-M-14 KP1005 (CTX-M-14 KP1005 [1]): Y (key: X: MIC of less than 1 μg/mL; Y: MIC of 1 μg/mL to 10 μg/mL; Z: MIC of greater than 10 μg/mL)
AZT MPC4 CMY-6 EC1010 (CMY-6 EC1010 [2]): X (MIC of less than 1 μg/mL)
TIG MPC4 CTX-M-15 KP1009 (CTX-M-15 KP1009 [3]): X (key: X: MIC of less than 1 μg/mL; Y: MIC of 1 μg/mL to 10 μg/mL; Z: MIC of greater than 10 μg/mL)
AZT MPC4 CTX-M-15 KP1009 (CTX-M-15 KP1009 [4]): X (MIC of less than 1 μg/mL)
AZT MPC4 KPC-2 KP1004 (KPC-2 KP1004): Y (MIC of 1 μg/mL to 10 μg/mL)
BPM MPC1 OXA-48 KP1086 (OXA-48 KP1086): Y (MIC of 1 μg/mL to 10 μg/mL)
BPM MPC1 KP1004 KPC-2 (KP1004 KPC-2): X (MIC of less than 1 μg/mL)
TIG MPC4 ECL1002 (ECL1002 [5]): X (MIC of less than 1 μg/mL)
TIG MPC4 SHV-5 ec308 (SHV-5 ec308 [6]): Y (MIC of 1 μg/mL to 10 μg/mL)
pKi (OXA-48): > 9.00
pKi (SHV-12; nitrocefin reporter substrate, 10 min preincubation, read-out: Ki (SHV-12, NCF)): > 9.00
AZT MPC4 SHV-5 ec308 (SHV-5 ec308 [7]): X (MIC of less than 1 μg/mL)
AZT MPC4 ECL1002 (ECL1002 [8]): X (MIC of less than 1 μg/mL)
clearance ([9]; dose 10 mg/kg): 14.5 mL/min/kg

O=C(CSC1CNC1)N[C@H]1Cc2cccc(C(=O)O)c2OB1O [Compound 22, (R)-3-(2-(azetidin-3-ylthio)acetamido)-2-hydroxy-3,4-dihydro-2H-benzo[e][1,2]oxaborinine-8-carboxylic acid]
TIG MPC4 CTX-M-14 KP1005 (CTX-M-14 KP1005 [1]): Y (key: X: MIC of less than 1 μg/mL; Y: MIC of 1 μg/mL to 10 μg/mL; Z: MIC of greater than 10 μg/mL)
AZT MPC4 CTX-M-14 KP1005 (CTX-M-14 KP1005 [10]): X (MIC of less than 1 μg/mL)
AZT MPC4 CMY-6 EC1010 (CMY-6 EC1010 [2]): X (MIC of less than 1 μg/mL)
TIG MPC4 CTX-M-15 KP1009 (CTX-M-15 KP1009 [3]): X (key: X: MIC of less than 1 μg/mL; Y: MIC of 1 μg/mL to 10 μg/mL; Z: MIC of greater than 10 μg/mL)
AZT MPC4 CTX-M-15 KP1009 (CTX-M-15 KP1009 [4]): X (MIC of less than 1 μg/mL)
AZT MPC4 KPC-2 KP1004 (KPC-2 KP1004): X (MIC of less than 1 μg/mL)
BPM MPC1 OXA-48 KP1086 (OXA-48 KP1086): Y (MIC of 1 μg/mL to 10 μg/mL)
BPM MPC1 KP1004 KPC-2 (KP1004 KPC-2): X (MIC of less than 1 μg/mL)
TIG MPC4 ECL1002 (ECL1002 [5]): X (MIC of less than 1 μg/mL)
TIG MPC4 SHV-5 ec308 (SHV-5 ec308 [6]): Y (MIC of 1 μg/mL to 10 μg/mL)
AZT MPC4 TEM-10 ec302 (TEM-10 ec302 [11]): Y (MIC of 1 μg/mL to 10 μg/mL)
pKi (KPC-2): < 8.00
pKi (OXA-48): 8.00 to 9.00
pKi (SHV-12): > 9.00
pKi (P99): 8.00 to 9.00
pKi (CTX-M-14): 8.00 to 9.00
TIG MPC4 CMY-6 EC1010 (CMY-6 EC1010 [12]): X (MIC of less than 1 μg/mL)
AZT MPC4 SHV-5 ec308 (SHV-5 ec308 [7]): X (MIC of less than 1 μg/mL)
AZT MPC4 ECL1002 (ECL1002 [8]): X (MIC of less than 1 μg/mL)
clearance ([9]; dose 20 mg/kg): 9.5 mL/min/kg

Nc1nnc(C(=O)N[C@H]2Cc3cccc(C(=O)O)c3OB2O)o1 [Compound 20, (R)-3-(5-amino-1,3,4-oxadiazole-2-carboxamido)-2-hydroxy-3,4-dihydro-2H-benzo[e][1,2]oxaborinine-8-carboxylic acid]
TIG MPC4 CTX-M-14 KP1005 (CTX-M-14 KP1005 [1]): Y (key: X: MIC of less than 1 μg/mL; Y: MIC of 1 μg/mL to 10 μg/mL; Z: MIC of greater than 10 μg/mL)
AZT MPC4 CTX-M-14 KP1005 (CTX-M-14 KP1005 [10]): Y (MIC of 1 μg/mL to 10 μg/mL)
AZT MPC4 CMY-6 EC1010 (CMY-6 EC1010 [2]): X (MIC of less than 1 μg/mL)
TIG MPC4 CTX-M-15 KP1009 (CTX-M-15 KP1009 [3]): X (key: X: MIC of less than 1 μg/mL; Y: MIC of 1 μg/mL to 10 μg/mL; Z: MIC of greater than 10 μg/mL)
AZT MPC4 CTX-M-15 KP1009 (CTX-M-15 KP1009 [4]): X (MIC of less than 1 μg/mL)
AZT MPC4 KPC-2 KP1004 (KPC-2 KP1004): Y (MIC of 1 μg/mL to 10 μg/mL)
BPM MPC1 OXA-48 KP1086 (OXA-48 KP1086): Y (MIC of 1 μg/mL to 10 μg/mL)
BPM MPC1 KP1004 KPC-2 (KP1004 KPC-2): X (MIC of less than 1 μg/mL)
TIG MPC4 TEM-10 ec302 (TEM-10 ec302 [13]): Y (key: X: MIC of less than 1 μg/mL; Y: MIC of 1 μg/mL to 10 μg/mL; Z: MIC of greater than 10 μg/mL)
TIG MPC4 ECL1002 (ECL1002 [5]): X (MIC of less than 1 μg/mL)
TIG MPC4 SHV-5 ec308 (SHV-5 ec308 [6]): X (MIC of less than 1 μg/mL)
AZT MPC4 TEM-10 ec302 (TEM-10 ec302 [11]): Y (MIC of 1 μg/mL to 10 μg/mL)
pKi (KPC-2): < 8.00
pKi (OXA-48): 8.00 to 9.00
pKi (SHV-12): 8.00 to 9.00
pKi (P99): 8.00 to 9.00
pKi (CTX-M-14): 8.00 to 9.00
TIG MPC4 CMY-6 EC1010 (CMY-6 EC1010 [12]): X (MIC of less than 1 μg/mL)
AZT MPC4 SHV-5 ec308 (SHV-5 ec308 [7]): X (MIC of less than 1 μg/mL)
AZT MPC4 ECL1002 (ECL1002 [8]): X (MIC of less than 1 μg/mL)

CNC(=O)CC(=O)N[C@H]1Cc2cccc(C(=O)O)c2OB1O [Compound 21, (R)-2-hydroxy-3-(3-(methylamino)-3-oxopropanamido)-3,4-dihydro-2H-benzo[e][1,2]oxaborinine-8-carboxylic acid]
TIG MPC4 CTX-M-14 KP1005 (CTX-M-14 KP1005 [1]): Y (key: X: MIC of less than 1 μg/mL; Y: MIC of 1 μg/mL to 10 μg/mL; Z: MIC of greater than 10 μg/mL)
AZT MPC4 CTX-M-14 KP1005 (CTX-M-14 KP1005 [10]): Y (MIC of 1 μg/mL to 10 μg/mL)
AZT MPC4 CMY-6 EC1010 (CMY-6 EC1010 [2]): X (MIC of less than 1 μg/mL)
TIG MPC4 CTX-M-15 KP1009 (CTX-M-15 KP1009 [3]): Y (key: X: MIC of less than 1 μg/mL; Y: MIC of 1 μg/mL to 10 μg/mL; Z: MIC of greater than 10 μg/mL)
AZT MPC4 CTX-M-15 KP1009 (CTX-M-15 KP1009 [4]): X (MIC of less than 1 μg/mL)
AZT MPC4 KPC-2 KP1004 (KPC-2 KP1004): Y (MIC of 1 μg/mL to 10 μg/mL)
BPM MPC1 OXA-48 KP1086 (OXA-48 KP1086): Y (MIC of 1 μg/mL to 10 μg/mL)
BPM MPC1 KP1004 KPC-2 (KP1004 KPC-2): X (MIC of less than 1 μg/mL)
TIG MPC4 ECL1002 (ECL1002 [5]): X (MIC of less than 1 μg/mL)
TIG MPC4 SHV-5 ec308 (SHV-5 ec308 [6]): Y (MIC of 1 μg/mL to 10 μg/mL)
AZT MPC4 TEM-10 ec302 (TEM-10 ec302 [11]): Y (MIC of 1 μg/mL to 10 μg/mL)
pKi (KPC-2): < 8.00
pKi (OXA-48): > 9.00
pKi (SHV-12): > 9.00
pKi (P99): 8.00 to 9.00
pKi (CTX-M-14): 8.00 to 9.00
TIG MPC4 CMY-6 EC1010 (CMY-6 EC1010 [12]): X (MIC of less than 1 μg/mL)
AZT MPC4 SHV-5 ec308 (SHV-5 ec308 [7]): X (MIC of less than 1 μg/mL)
AZT MPC4 ECL1002 (ECL1002 [8]): X (MIC of less than 1 μg/mL)

Reference: patent publication US9642869B2, “Boronic acid derivatives and therapeutic uses thereof” (Rempex Pharmaceuticals, Inc., priority 2013, dated 2017)
